The subject of assay [1] is colonic adenomas. In words: In vivo imaging with non-scanning endoscope, FITC-labeled peptides. Also on record: species or system CPC; Apc mice. As to conditions: Non-scanning Endoscopy Results; FITC label; mean ± SD. An excerpt: Specific binding of the candidate peptides to primary dysplastic colonic epithelial cells were validated on flow cytometry ex vivo and with small animal endoscopy in vivo using FITC-labeled peptides using a non-scanning white light endoscope.

The subject of assay [2] is colonic adenomas. In words: In vivo imaging with multi-spectral scanning fiber endoscope. Set-up: species or system CPC; Apc mice. As to conditions: 100 μM topical, 5 min; for Average T/B: Multi-Spectral Scanning Fiber Endoscopy Results, mean ± SD. The text has this:
A scanning fiber endoscope system was adapted for fluorescence detection in three channels (RGB) using excitation at 440 (NDHB510APA, Nichia, Tokyo, Japan), 532 (FTEC532-V10TA0, Blue Sky Research, Milpitas, Calif.) and 635 (FMXL635-017TA0B, Blue Sky Research) nm using an RGB coupler (OZ Optics, Ottawa, Canada). The three laser sources are delivered simultaneously into the scanning fiber, and focused to the same point on the illumination plane using a custom lens assembly, as shown in the schematic in FIG. 2A. The laser power coming out of the distal tip of the endoscope is <2 mW for each channel, a level consistent with a non-significant risk (NSR) determination by the U.S. Food and Drug Administration (FDA, 21 CFR 812) for future human clinical studies. The amplitude of the spiral scanner was reduced to achieve a divergence angle of 70 deg (max 100 deg) to minimize noise in the periphery of the image. Fluorescence is collected by a ring of 12 step-index plastic optical fibers (POF) with numerical aperture (N.A.) of 0.63 and outer diameter of 250 μm (Toray Industries Inc, Tokyo, Japan).
The CPC;Apc mice were first imaged with white light using a non-scanning endoscope (Karl Storz Veterinary Endoscopy, Goleta, Calif.) to assess for the presence of colonic adenomas that have a size between ˜0.5 to 4 mm in diameter. Any adenomas were rinsed of debris including stool and mucous, by delivering tap water through a 3 Fr instrument channel. Then, the fluorescent-labeled peptides were delivered topically at a concentration of 100 μM in 1×PBS in a volume of 1 mL to the distal 4 cm of the colon and rectum. The peptides were incubated for 5 minutes and then the unbound peptides were rinsed away with tap water 3 times. The colon was inspected for any residual peptide, and when clean, the colon was insufflated with air and imaged with the multi-spectral scanning fiber endoscope.
Videos collected during endoscopy were exported as avi video files and converted into sequential png images using Apple QuickTime. White light and fluorescence images for each adenoma were analyzed in NIH Image J. The white light image was utilized to draw a region of interest (ROI) around the adenoma or adjacent normal appearing colonic mucosa which was then superimposed onto the fluorescence image. The mean fluorescence intensities were calculated for each ROI, and a target/background (T/B) ratio was calculated for each colonic adenoma and compared to the surrounding normal appearing mucosa.

For assay [3], the system named is HT29 cells. Briefly: Competitive inhibition assay (bound phage counts). Type of assay: cell-based, human. As to the method: Bound phage counts were performed to observe the competitive inhibition effect of the synthetic candidate heptapeptide with its representative phage counterpart in triplicate. HT29 cells (5×10^6) were detached with enzyme free cell dissociation buffer and blocked with 1% BSA containing PBS for 30 min at 4° C. The cells were washed and incubated with phage (2×10^11) for 15 min. Then, the cells were washed with PBS and immediately incubated with different concentrations of unlabeled peptide ranging from 10 to 200 μM for an additional 15 min. Cells were washed 3× and the bound phages were recovered as described above in bound phage counts. The bound phages were then tittered and counted, and the relative inhibition rate was calculated. The inhibition activity of no-insert WT phage by synthetic candidate peptide and phage with unrelated synthetic control peptide were used as negative controls.

Assay [4] deals with colonic dysplasia (adenomas). Briefly: In vivo NIR fluorescence endoscopic imaging. As to conditions: for fluorescence signal on in vivo NIR image: 100 μM topical, 5 min; for average T/B ratio: adenoma/adjacent normal ratio as defined. Also on record: species or system CPC;Apc mice. The text has this:
Anesthesia was induced and maintained with inhaled isofluorane mixed with oxygen via a nose cone at a dose of 4% and 2% at a flow rate 0.5 liter/min, respectively. Prior to peptide administration, the colon of each mouse was cleaned with a tap water lavage to remove debris. The conventional white light endoscope was used first with a color camera to identify the presence of adenomas. The colon was then rinsed with water until all of the visible mucous was removed. The Cy5.5-labeled peptides were then delivered at a concentration of 100 μM in 1×PBS containing 2.5% DMSO […] through the instrument channel. The peptides were allowed to incubate for 5 minutes, and then the colon was cleansed 3 times with a tap water to remove any unbound peptide. Prior to imaging, the colon was inspected for residual peptide solution, and when clean, the colon was insufflated with air for imaging. Fluorescence images were collected using Axiovision 4.8.1 software.
Images collected during endoscopy were recorded as .zvi files and converted into .tiff images using Axiovision Lite software. Consecutive white light and fluorescence images for each adenoma were analyzed. Regions of interest (ROI) around the adenoma and adjacent normal-appearing mucosa were defined on the color and fluorescence images using Labview®. The white light image was utilized to draw an ROI around the adenoma or adjacent normal appearing colonic mucosa which was then superimposed onto the fluorescent image. Mean gray scale values were calculated for each ROI, and an adenoma/normal colon, or a T/B ratio, value was then calculated for each adenoma. The mean fluorescence intensities were calculated from each ROI to determine the ratio of the average intensities for the adenomas to that from adjacent normal-appearing mucosa, or T/B ratio.
Two-tailed independent samples t-tests (significance level at α=0.05) were used to determine statistical significance between the T/B ratio for the QPI-Cy5.5 and YTT-Cy5.5 peptides binding to colonic adenomas in the CPC;Apc mice. All statistical computations were processed either using statistical software (SPSS15.0.; SPSS, Chicago, Ill.) or Minitab (Minitab Inc. State College, Pa.).

The test system of assay [5] is human colonic mucosa sections (normal, dysplasia, adenocarcinoma). Briefly: Cy5.5-labeled peptide staining of human colonic mucosa sections. As to conditions: for sections of adenocarcinoma stained / sections of dysplasia stained: stained/total sections. How it is done:
All specimens were obtained with approval from the University of Michigan Institutional Review Board (IRB). Freshly resected specimens of human colonic mucosa were frozen in OCT and sectioned with 10 μm thickness using Microm-HM-550 Microtome (EquipNet, Inc. Canton, Mass.). The sections were then air dried, washed with PBS 1×, and incubated with the Cy5.5-labeled peptides at a concentration of 10 μM for 15 min at RT. The sections were washed 3× for 1 min in PBS and fixed with 4% paraformaldehyde for 10 min. After fixation, the sections were washed again (1×) and mounted with ProLong Gold reagent with DAPI (Invitrogen, Carlsbad, Calif.). The sections were imaged under a confocal microscope (Leica TCS SP5 Microsystems, Bannockburn, Ill.). Adjacent sections were sent for routine histology. The average intensity from the entire field-of-view of each image was calculated using Matlab (Mathworks, Natick, Mass.).
For the ex-vivo peptide immunohistochemistry, the nonparametric Kruskal-Wallis test was used to determine if observed differences are statistically significant among all three pathological classifications. The nonparametric Mann-Whitney test was used for comparisons between two independent samples, and differences with p<0.05 were considered significant.

Where no end group is shown, it is not given here. The star is where a group is joined. 5‑TAMRA = CN(C)c1ccc2c(-c3ccc(C(=O)*)cc3C(=O)[O-])c3ccc(N(C)C)cc3[o+]c2c1; DEAC = CCN(CC)c1ccc2cc(C(=O)*)c(=O)oc2c1; Cy5.5 = Cy5.5 fluorescent dye; Ahx = NCCCCCC(=O)O A value given as a limit tells only on which side of the number the result lay.

For “AKPGYLS-FITC: AKPGYLS labeled with 5′-FITC at the C-terminus via GGGSK linker (not fully specified; GGGSK linker, FITC)”, in assay [1], the “Average T/B” value was found to be 1.53 ± 0.48.
In the case of “ALTPTPP-FITC: ALTPTPP labeled with 5′-FITC at the C-terminus via GGGSK linker (not fully specified; GGGSK linker, FITC)”, the “Average T/B” value in assay [1] is 1.19 ± 0.18.
For the substance “ANYPREP-FITC: ANYPREP labeled with 5′-FITC at the C-terminus via GGGSK linker (not fully specified; GGGSK linker, FITC)”, the “Average T/B” value in assay [1] was 0.94 ± 0.11.
“ATTVPAS-FITC: ATTVPAS labeled with 5′-FITC at the C-terminus via GGGSK linker (not fully specified; GGGSK linker, FITC)”: the “Average T/B” value in assay [1] is recorded as 1.06 ± 0.33.
Consider “GGGAGGG-FITC: FITC-labeled GGGAGGG control peptide; probably the same as FITC-Control peptide 2 (also: FITC label, site not given here) [reference compound]”, for which, in assay [1], the “Average T/B” value was 1.05 ± 0.05.
For “GGGAGGGAGGGK (5-TAMRA)-NH2 (GGGAGGGAGGGK(5‑TAMRA)-NH2; N-terminus assumed; SMILES C[C@H](NC(=O)CNC(=O)CNC(=O)CN)C(=O)NCC(=O)NCC(=O)NCC(=O)N[C@@H](C)C(=O)NCC(=O)NCC(=O)NCC(=O)N[C@@H](CCCCNC(=O)c1ccc(-c2c3ccc(N(C)C)cc3[o+]c3cc(N(C)C)ccc23)c(C(=O)[O-])c1)C(N)=O) [GGGAGGG-TAMRA, reference compound]”, in assay [2], the “binding to colonic dysplasia/adenomas on fluorescence images” value (from here on “binding to colonic dysplasia/adenomas”) is on record as “minimal signal” and the “Average T/B” value was 1.32±0.10.
Regarding “GGGAGGGAGGGK (DEAC)-NH2 (GGGAGGGAGGGK(DEAC)-NH2; N-terminus assumed; SMILES CCN(CC)c1ccc2cc(C(=O)NCCCC[C@H](NC(=O)CNC(=O)CNC(=O)CNC(=O)[C@H](C)NC(=O)CNC(=O)CNC(=O)CNC(=O)[C@H](C)NC(=O)CNC(=O)CNC(=O)CN)C(N)=O)c(=O)oc2c1) [GGGAGGG-DEAC, reference compound]”, in assay [2], the “binding to colonic dysplasia/adenomas” value is given as “minimal signal” and the “Average T/B” value is reported as 1.19±0.09.
Take “KCCFPAQ [Peptide 2, heptapeptide from M13 phage display]”: the “bound KCCFPAQ phage count” value in assay [3] (HT29, 200 μM unlabeled KCCFPAQ peptide) is given as 3.8×10^4±6.6×10^3. Moreover, the “inhibition of WT phage binding” value in assay [3] (addition of KCCFPAQ peptide) was “did not inhibit”. The “rate of inhibition at saturation” value in assay [3] (peptide concentration above ˜75 μM) was more than 98%. Further, in assay [3] (up to 200 μM unlabeled peptide), the “inhibition of KCCFPAQ phage binding to HT29 cells” value is given as “in a dose-dependent manner”.
Regarding “LTTHYKL-CF633: LTTHYKL labeled with CF633 (also: CF633 label, place not given here)”, in assay [2], the “binding to colonic dysplasia/adenomas” value was “more subtle”.
On to “LTTHYKL-FITC: LTTHYKL labeled with 5′-FITC at the C-terminus via GGGSK linker (not fully specified; GGGSK linker, FITC)”, for which the “Average T/B” value in assay [1] turned out to be 1.50 ± 0.73.
Still for that read-out and setting: to “NLVNLLP-FITC: NLVNLLP labeled with 5′-FITC at the C-terminus via GGGSK linker (not fully specified; GGGSK linker, FITC)” belongs 0.99 ± 0.06.
For “QPI-Cy5.5: QPIHPNNM conjugated with Cy5.5 on the N-terminus via an amino-hexanoic acid linker ({Cy5.5-Ahx}-QPIHPNNM; not fully specified)”, in assay [4], the “fluorescence signal on in vivo NIR image” value is listed as “significant contrast enhancement” and the “average T/B ratio” value came out at 3.42±1.30. In assay [5] (10 μM, 15 min, RT), the “staining of dysplasia and adenocarcinoma” value is listed as “consistently stained”; the “staining of normal colonic mucosa” value is reported as “did not stain any of the 7 sections”. The “staining of normal colonic mucosa” value in assay [5] (10 μM, 15 min, RT, listed as QPI-CY5.5) is listed as “no binding”. Besides, in assay [5] (adenocarcinoma), the “T/B ratio QPI-Cy5.5 in comparison to YTT-Cy5.5” value amounted to 2.9, the “intensity ratio relative to normal colonic mucosa” value is reported as 6.5 and the “mean NIR fluorescence intensity” value was found to be 9.8±2.4 AU. Further, in assay [5] (dysplasia), the “T/B ratio QPI-Cy5.5 in comparison to YTT-Cy5.5” value came out at 26.7, the “intensity ratio relative to normal colonic mucosa” value is given as 7.1 and the “mean NIR fluorescence intensity” value was 10.7±3.3 AU. Moreover, the “mean NIR fluorescence intensity” value in assay [5] (normal) is 1.5±1.0 AU. For the same substance, in assay [5] (normal mucosa), the “T/B ratio QPI-Cy5.5 in comparison to YTT-Cy5.5” value is listed as 1.8. For the same substance, in assay [5], the “sections of adenocarcinoma stained” value is given as 8/10 and the “sections of dysplasia stained” value is reported as 6/8.
Consider YTTNKH [YTT-Cy5.5, reference compound], for which, in assay [4], the “fluorescence signal on in vivo NIR image” value was “negligible signal” and the “average T/B ratio” value is 1.88±0.38. In addition, in assay [5] (10 μM, 15 min, RT), the “staining of any specimen (normal, dysplasia, adenocarcinoma)” value is given as “did not stain any of the specimens” and the “staining of normal colonic mucosa” value is “did not stain”. Besides, in assay [5], the “sections of adenocarcinoma stained” value is given as 5/10 and the “sections of dysplasia stained” value was “did not stain”.

For the origin of these results see US8901276B2, “Peptide reagents and methods for detection of colon dysplasia” (The Regents of the University of Michigan, priority 2010, dated 2014).
